Values joined by “and” are separate entries in the source; they are usually repeats but may differ in a detail not shown here. Equal values may be shown once. Inconclusive results are not listed. Where a SMILES comes first, the peptide text is derived from it. Bridges are numbered along the chain shown (N, C = ends). Roman numbers before positions name the chains, in order. [ ]: non-standard residue; d: D form. The star is where a group is joined. Quinoxaline2carbonyl = O=C(c1cnc2ccccc2n1)*; NMeV = CN[CH](C(=O)O)C(C)C; NMeC = CN[CH](CS)C(=O)O
Test system: BDF1 mice, colon carcinoma 38 sc, T/C %
Assay: NCI In Vivo Anticancer Drug Screen. Data for tumor model Colon Carcinoma 38 (subcutaneous) in B6D2F1 (BDF1) mice
Details: endpoint: median tumor weight (est.), schedule: Q07DX002 (ip), higher = larger tumour
In short: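 T/C readout: treated group (T) measurement over vehicle control group (C) measurement. Endpoint is survival or tumor size in mice bearing a transplanted tumor.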

[1] = dose: 25.0 mg/kg/injection, vehicle: saline with Tween-80
[2] = dose: 50.0 mg/kg/injection, vehicle: saline with Tween-80
[3] = dose: 100.0 mg/kg/injection, vehicle: saline with Tween-80
[4] = dose: 200.0 mg/kg/injection, vehicle: saline with Tween-80
[5] = dose: 400.0 mg/kg/injection, vehicle: saline with Tween-80
[6] = dose: 800.0 mg/kg/injection, vehicle: saline with Tween-80
[7] = dose: 6.25 mg/kg/injection, vehicle: saline
[8] = dose: 25.0 mg/kg/injection, vehicle: saline
[9] = dose: 100.0 mg/kg/injection, vehicle: saline

Q: How did the T/C [1] turn out when `N#CCCSC(=S)C1CCCC1=N` (configuration not stated) was run?
A: Its T/C is 107 % of control.

Q: What about the T/C [2] of the same compound?
A: Its T/C is 95 % of control.

Q: And the T/C [3]?
A: Its T/C is 90 % of control.

Q: And the T/C [4]?
A: The T/C was 99 % of control.

Q: And the T/C [5]?
A: The T/C was 71 % of control.

Q: And the T/C [6]?
A: Its T/C is 86 % of control.

Q: Which results are given for `CCNC(=O)[B-][N+](C)(C)C`?
A: T/C (dose: 100.0 mg/kg/injection, vehicle: Klucel (hydroxypropylcellulose) (HPC)): 116 % of control; T/C (dose: 200.0 mg/kg/injection, vehicle: Klucel (hydroxypropylcellulose) (HPC)): 67 % of control; T/C (dose: 400.0 mg/kg/injection, vehicle: Klucel (hydroxypropylcellulose) (HPC)): 113 % of control and 96 % of control

Q: With `O=C(NO)c1ccc(O)c(O)c1` as the compound, how does the T/C (dose: 50.0 mg/kg/injection, vehicle: water) read?
A: The T/C was 88 % of control.

Q: And the T/C (dose: 100.0 mg/kg/injection, vehicle: water)?
A: Its T/C is 92 % of control.

Q: And the T/C (dose: 200.0 mg/kg/injection, vehicle: water)?
A: Its T/C is 85 % of control.

Q: And the T/C (dose: 400.0 mg/kg/injection, vehicle: water)?
A: The T/C was 48 % of control.

Q: `CC(=O)O[C@@H]1CO[C@H]2O[C@H]3[C@@H](C(C=O)=C[C@H](O)[C@@H]4C5=C(C(C)C)CC[C@]5(C)CC[C@@]34C)[C@@]2(O)C1=O` was tested. Which T/C (dose: 1.5 mg/kg/injection, vehicle: Klucel (hydroxypropylcellulose) (HPC)) did it give?
A: The T/C was 57 % of control.

Q: What about the T/C (dose: 3.0 mg/kg/injection, vehicle: Klucel (hydroxypropylcellulose) (HPC)) of the same compound?
A: The T/C was 80 % of control.

Q: What about the T/C (dose: 6.0 mg/kg/injection, vehicle: Klucel (hydroxypropylcellulose) (HPC)) of the same compound?
A: Its T/C is 61 % of control.

Q: And the T/C (dose: 12.0 mg/kg/injection, vehicle: Klucel (hydroxypropylcellulose) (HPC))?
A: Its T/C is 86 % of control.

Q: `O=c1[nH]cnc2c1ccn2C1OC(CO)C(O)C1O` (configuration not stated) was tested. Which T/C (dose: 1.5 mg/kg/injection, vehicle: saline) did it give?
A: The T/C was 88 % of control.

Q: And the T/C (dose: 3.0 mg/kg/injection, vehicle: saline)?
A: The T/C was 118 % of control.

Q: And the T/C (dose: 6.0 mg/kg/injection, vehicle: saline)?
A: The T/C was 100 % of control.

Q: And the T/C (dose: 12.0 mg/kg/injection, vehicle: saline)?
A: The T/C was 86 % of control.

Q: What about the T/C (dose: 24.0 mg/kg/injection, vehicle: saline) of the same compound?
A: The T/C was 63 % of control.

Q: What does the source list for `CC1NC(=O)C(NC(=O)c2cnc3ccccc3n2)COC(=O)C(C(C)C)N(C)C(=O)C2CSSCC(C(=O)N(C)C(C(C)C)C(=O)OCC(NC(=O)c3cnc4ccccc4n3)C(=O)NC(C)C(=O)N2C)N(C)C1=O` (configuration not stated) (I: Quinoxaline2carbonyl-SA[NMeC][NMeV] / II: Quinoxaline2carbonyl-SA[NMeC][NMeV]; ester I:1-II:C, I:C-II:1; disulfide I:3-II:3; configuration not given here)?
A: T/C (dose: 25.0 micrograms/kg/injection, vehicle: Klucel (hydroxypropylcellulose) (HPC)): 102 % of control; T/C (dose: 50.0 micrograms/kg/injection, vehicle: Klucel (hydroxypropylcellulose) (HPC)): 74 % of control; T/C (dose: 100.0 micrograms/kg/injection, vehicle: Klucel (hydroxypropylcellulose) (HPC)): 84 % of control; T/C (dose: 200.0 micrograms/kg/injection, vehicle: Klucel (hydroxypropylcellulose) (HPC)): 95 % of control

Q: Which results are given for `O=c1c(O)c(-c2cc(O)c(O)c(O)c2)oc2cc(O)cc(O)c12`?
A: T/C (dose: 6.25 mg/kg/injection, vehicle: other): 75 % of control; T/C (dose: 12.5 mg/kg/injection, vehicle: other): 87 % of control; T/C (dose: 12.5 mg/kg/injection, vehicle: saline with Tween-80): 152 % of control and 172 % of control; T/C (dose: 25.0 mg/kg/injection, vehicle: other): 73 % of control; T/C [1]: 113 % of control and 107 % of control; T/C (dose: 50.0 mg/kg/injection, vehicle: other): 96 % of control; T/C [2]: 120 % of control and 107 % of control; T/C (dose: 100.0 mg/kg/injection, vehicle: other): 65 % of control; T/C [3]: 161 % of control and 214 % of control; T/C (dose: 200.0 mg/kg/injection, vehicle: other): 98 % of control; T/C [4]: 187 % of control; T/C (dose: 400.0 mg/kg/injection, vehicle: other): 77 % of control; T/C [5]: 116 % of control and 100 % of control

Q: How did the T/C [7] turn out when `C=C1C(=O)OC2CC(C)C3C4OC4C(O)C3(C)C(O)C12` (configuration not stated) was run?
A: The T/C was 115 % of control.

Q: What about the T/C (dose: 12.5 mg/kg/injection, vehicle: saline) of the same compound?
A: The T/C was 118 % of control.

Q: And the T/C [8]?
A: Its T/C is 116 % of control.

Q: And the T/C (dose: 50.0 mg/kg/injection, vehicle: saline)?
A: The T/C was 80 % of control.

Q: What about the T/C [9] of the same compound?
A: Its T/C is 155 % of control.

Q: With `O=C(N[C@H](CO)[C@H](O)c1ccc([N+](=O)[O-])cc1)C(Cl)Cl` as the compound, how does the T/C [3] read?
A: Its T/C is 60 % of control.

Q: And the T/C (dose: 112.0 mg/kg/injection, vehicle: saline with Tween-80)?
A: The T/C was 72 % of control.

Q: And the T/C [4]?
A: Its T/C is 91 % of control.

Q: What about the T/C (dose: 225.0 mg/kg/injection, vehicle: saline + Tween-80 + alcohol) of the same compound?
A: Its T/C is 44 % of control.

Q: What about the T/C (dose: 225.0 mg/kg/injection, vehicle: saline with Tween-80) of the same compound?
A: The T/C was 95 % of control.

Q: What about the T/C [5] of the same compound?
A: Its T/C is 112 % of control.

Q: What about the T/C (dose: 450.0 mg/kg/injection, vehicle: saline + Tween-80 + alcohol) of the same compound?
A: The T/C was 85 % of control.

Q: What about the T/C (dose: 450.0 mg/kg/injection, vehicle: saline with Tween-80) of the same compound?
A: The T/C was 87 % of control and 94 % of control.

Q: And the T/C [6]?
A: Its T/C is 68 % of control.

Q: And the T/C (dose: 900.0 mg/kg/injection, vehicle: saline + Tween-80 + alcohol)?
A: The T/C was 41 % of control.

Q: What about the T/C (dose: 900.0 mg/kg/injection, vehicle: saline with Tween-80) of the same compound?
A: The T/C was 118 % of control.

Q: For `COC1CC(C)C(OC)c2cc(O)cc(c2O)NC(=O)/C(C)=C/C=C\C(C)C(OC(N)=O)/C(C)=C\C(C)C1OC` (configuration not stated), which T/C (dose: 3.13 mg/kg/injection, vehicle: saline + alcohol) is on record?
A: Its T/C is 114 % of control.

Q: And the T/C (dose: 12.5 mg/kg/injection, vehicle: saline + alcohol)?
A: Its T/C is 69 % of control.

Q: And the T/C (dose: 25.0 mg/kg/injection, vehicle: saline + alcohol)?
A: The T/C was 94 % of control.

Q: Which results are given for `Cc1c2cc[n+](CCN3CCCCC3)cc2c(C)c2c1[nH]c1ccc(O)cc12`?
A: T/C (dose: 3.12 mg/kg/injection, vehicle: saline): 36 % of control; T/C (dose: 3.12 mg/kg/injection, vehicle: suspension in saline): 100 % of control; T/C [7]: 53 % of control and 61 % of control; T/C (dose: 6.25 mg/kg/injection, vehicle: suspension in saline): 104 % of control; T/C (dose: 12.5 mg/kg/injection, vehicle: suspension in saline): 86 % of control; T/C [8]: 39 % of control and 64 % of control; T/C (dose: 25.0 mg/kg/injection, vehicle: suspension in saline): 69 % of control; T/C (dose: 50.0 mg/kg/injection, vehicle: suspension in saline): 39 % of control; T/C [9]: 36 % of control and 47 % of control

Q: Which results are given for `CCC1=C[C@H]2CN(CCc3c([nH]c4ccccc34)[C@@](C(=O)OC)(c3cc4c(cc3OC)N(C)[C@H]3[C@@](O)(C(=O)NC)[C@H](OC(C)=O)[C@]5(CC)C=CCN6CC[C@]43[C@@H]65)C2)C1`?
A: T/C (dose: 0.03 mg/kg/injection, vehicle: saline): 116 % of control; T/C (dose: 0.06 mg/kg/injection, vehicle: saline): 84 % of control; T/C (dose: 0.12 mg/kg/injection, vehicle: saline): 90 % of control; T/C (dose: 0.5 mg/kg/injection, vehicle: saline): 108 % of control; T/C (dose: 1.0 mg/kg/injection, vehicle: saline): 90 % of control
